Experimental data reported in article PMC3972730 (Bioorganic & medicinal chemistry letters, 2010).

Tests used:
[1] = Metabolite identification in human liver microsomes with NADPH; assay type: in vitro ADME; conditions: human liver microsomes in the presence of NADPH, LC-MS/MS
[2] = Microsomal stability in human liver microsomes; assay type: in vitro ADME; conditions: parent remaining after 30mins incubation with human liver microsomes

For `O=C(CCc1cnnn1-c1cccc(Cl)c1)c1ccccc1` [Compound 12e], which metabolites formed [1] is on record?
Its metabolites formed is “two metabolites were formed with masses equal to (parent+2) and (parent+16)”.

For `CC(C)(C)C(=O)CCc1cnnn1-c1ccccc1` [Compound 13h], which HLM % parent [2] is on record?
The HLM % parent was 4%.
